In PubChem BioAssay (NCI):
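How tested: cells in 96-well plates exposed to compound for 48 hours at five concentrations. TGI is the concentration that stops growth completely.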

How the values were obtained:
Experiment in all cases: DTP human tumour cell line panel, 48 h
[1] = system: UACC-62 melanoma
[2] = system: SF-268 CNS
[3] = system: HOP-92 NSCLC
[4] = system: TK-10 renal
[5] = system: HOP-62 NSCLC
[6] = system: K-562 leukemia
[7] = system: UO-31 renal
[8] = system: U251 CNS
[9] = system: HCT-116 colon
[10] = system: RXF 393 renal

Row | Compound | TGI [1] [µM] | TGI [2] [µM] | TGI [3] [µM] | TGI [4] [µM] | TGI [5] [µM] | TGI [6] [µM] | TGI [7] [µM] | TGI [8] [µM] | TGI [9] [µM] | TGI [10] [µM]
1 | CC(C)(C)OC(=O)NCCC(N)=S | > 100 | > 100 | > 100 | > 100 | > 100 | > 100 | > 100 | > 100 | > 100 | > 100
2 | C[C@@H]1S[C@H](c2ccccc2F)N2Cc3ccccc3N=C12 | 54.8 | > 100 | 65 | 94.2 | > 100 | 65.9 | 54 | > 100 | 42.2 | 83.9
3 | Oc1[nH]c2ccc(Br)cc2c1N=NC(=S)Nc1ccc(F)cc1 | 13.8 | 35.7 | 16.3 | 23.8 | 60.5 | 67.3 |  | 18.5 | 18 | 13.2
4 | CCOC(CNCCC(=O)OC)OCC | > 10 | > 10 | > 10 | > 10 | > 10 | > 10 | > 10 | > 10 | > 10 | > 10
5 | CC1=C2C(=C[C@H]3[C@]4(C)CCCC(C)(C)[C@H]4CC[C@]34O[C@H]24)OC1=O | > 100 | > 100 | > 100 | > 100 | > 100 | > 100 | > 100 | > 100 | > 100 | > 100
6 | CCc1c[n+]([O-])c(C)cc1[N+](=O)[O-] | > 100 | > 100 | > 100 | > 100 | > 100 | > 100 | > 100 | > 100 | > 100 | 60.9
7 | O=C1Sc2ccccc2C(=O)N2CSCC12 (configuration not stated) | > 100 | > 100 | > 100 | > 100 | > 100 | > 100 | > 100 | > 100 | > 100 | > 100
8 | CSC(=Nc1ccccc1)N(c1ccccc1)c1nc(=[N+](C)C)ss1 | 1.74 | 21.6 | 7.09 | 27.7 | 27.2 | 2.89 | 28.3 | 17.2 | 12 | 12.7
9 | COc1cc2nc(-c3cccs3)oc(=O)c2cc1OC | > 100 | > 100 | > 100 | > 100 | 69.1 | > 100 | > 100 | > 100 | > 100 | > 100
10 | COC(=O)CN1c2nc(C#N)c(C#N)nc2N(CC(=O)OC)c2nc(C#N)c(C#N)nc21 | 42.4 | 11.4 | 7.44 | 6.78 | 34.3 | > 33.9 | > 25.6 | > 57.1 | 3.77 | 7.09
11 | COC(=O)CCc1cc(OC)c2c(c1)[C@H](C(=O)OC)[C@@H](c1ccc(O)c(OC)c1)O2 | > 100 | > 100 | > 100 | > 100 | > 100 | 50.4 | > 100 | > 100 | > 100 | > 100
12 | CC(=O)Oc1cc(C(F)(F)F)ccc1C(=O)OC1(C)OC(=O)c2ccc(C(F)(F)F)cc2O1 (configuration not stated) | > 100 | > 100 | > 100 | > 100 | > 100 | > 100 | > 100 | > 100 | > 100 | > 100
13 | CC(O)CCCOC(c1ccccc1)(c1ccccc1)c1ccccc1 (configuration not stated) | 27 | 29.8 | 25.5 | 30.6 | 31.4 | > 100 | 26.7 | 30.3 | 26.9 | 29.2
14 | S=c1[nH]c2ccc(Br)cc2c(=S)s1 | 50.7 | > 100 | 64.8 | 84.5 | > 100 | > 100 | 53.5 | 54.8 | 52.1 | > 100
15 | CCCCn1cnc2c(c(CC#N)nn2-c2ccccc2)c1=N | 53.1 | > 100 | > 100 | > 100 | > 100 | > 100 | > 100 | > 100 | > 100 | > 100
16 | Cc1ccc(OCCn2cc(Nc3ccccc3)c(=O)n(CCOc3ccc(C)cc3)c2=O)cc1 | > 100 | > 100 | > 100 | > 100 |  | > 100 | > 100 | > 100 | > 100 | > 100
17 | CCOC(=O)c1nc2ccc(C(F)(F)F)cc2nc1Oc1ccc(C#N)cc1 | 36.5 | 33.6 | 47.2 | 84.3 | 28.9 | > 100 | > 100 | 61.1 | > 100 | 37.8
18 | CC(=O)O[C@H]1C(=O)[C@@]2(C)[C@H]([C@H](OC(=O)c3ccc(F)cc3)[C@]3(O)C[C@H](OC(=O)[C@H](O)[C@@H](NC(=O)c4ccccc4)c4ccccc4)C(C)=C1C3(C)C)[C@]1(OC(C)=O)CO[C@@H]1C[C@@H]2O | > 25 | > 25 | > 25 | > 16.1 | > 25 | 0.172 | > 25 | 0.738 | 0.381 | 0.902
19 | O=c1[nH]cnc(NC2C=C(CO)C(O)C2O)c1[N+](=O)[O-] (configuration not stated) | > 100 | > 100 | > 100 | > 100 | > 100 | > 100 | > 100 | > 100 | > 53.1 | > 100
20 | CCN(CC)CCCNC(=O)c1ccc([N+](=O)[O-])cc1O | > 100 | > 100 | > 100 | > 100 | > 100 | > 100 | > 100 | > 100 |  | > 100
21 | COC(C)(C)[C@@H](O)[C@H]1C[C@H](C)[C@@]2(CC[C@]3(C)[C@@H]2CC[C@@H]2[C@@]4(C)CC[C@@H](OC(C)=O)C(C)(C)[C@@H]4C[C@@H](OC4OC(COC(C)=O)C(O)C(O)C4O)[C@]23C)O1 (some centres not stated) | 18.6 | 18.6 | 17.6 | 24.6 | 25 | 21.3 | 15.5 | 18.5 | 11.5 | 11.8
